Among the data in a melting point compilation (Tetko et al.) are melting point values, retold here.

Consider `CCCCNc1cc(C(=O)O)cc(S(N)(=O)=O)c1Oc1ccccc1`, for which the melting point stood at 231 °C.
For the compound `N#Cc1ccc(-c2ccco2)cc1`, the melting point lay in the range of 66 to 67 °C.
For the compound `COc1cc(C(=O)O)ccc1C`, the melting point stood at 159 °C.
In turn, `Brc1ccc(Oc2cc(Br)ccc2Br)c(Br)c1` returned a melting point of under 20 °C.
As to `CCOC(=O)CSc1ncc(C(=O)OC)n1C`, the melting point fell in the range of 35 to 36 °C.
Regarding `Oc1ccc(C(O)(c2ccccc2)c2ccc(O)c3ccccc23)c2ccccc12`, the melting point was found to be 232 °C.
As to `CSc1ccc(Br)cc1`, the melting point stood at 38.5 °C.
Consider `COc1ccccc1/C=C(\C(N)=O)c1nc2ccccc2s1`, for which the melting point turned out to be 174 °C.
`CCC(=O)Cl` yielded a melting point of -94 °C.
`Nc1ccc(S(=O)(=O)Nc2cnccn2)cc1` returned a melting point of 251 °C.
The compound `Cc1nc(-c2ccc(C(F)(F)F)cc2)sc1S(=O)(=O)Cl` returned a melting point of 93 to 94 °C.
In the case of `CC(O)C(Cl)(Cl)Cl` (stereo not drawn), the melting point came to 50.5 °C.
`O=[N+]([O-])c1cc(F)ccc1Cl` had a melting point of 38 °C.
With `CC(C)C(C)(C)C` the figure was -25 °C; with `O=C1CCC2CC1CCC2=O`, 151 °C.
For `N#CC#N`, the melting point was -27.9 °C.
With `O=C1CNCCCNCC(=O)NCCCN1` the figure was 141 °C.
Compound `Oc1ccc(C=Cc2cc(O)cc(O)c2)cc1` registered a melting point of 254 °C.
Turning to `CC(C)CC(C)O` (stereo not drawn), the melting point is -90 °C.
Consider `CON(C)C(=O)Nc1ccc(Br)cc1`, for which the melting point worked out at 95 °C.
Consider `O=C(Nc1ccccc1)C(C(F)(F)F)C(F)(F)F`, for which the melting point lay within 165 to 167 °C.
Then `c1ccc2cc3c(cc2c1)oc1ccccc13`, with 202 to 207 °C; and `CCOC(=O)c1c[nH]nc1C`, with 136 to 138 °C.
For the compound `O=[N+]([O-])c1ccc(-n2cc[nH]c2=S)cc1`, the melting point fell in the range of 232 to 233 °C.
For the compound `Cc1cc(C(=O)O)ccc1O`, the melting point lay within 174 to 175 °C.
With `COC(=O)c1cc(C(=O)OC)c(C(=O)OC)cc1C(=O)OC` the figure was 144 °C; with `O=C1CC=CCC(=O)CC=CC1`, 184 °C; with `CCC1CCC(C)C1` (stereo not drawn), -108 °C.
`Cc1cc(C(=O)O)cc(Cl)c1N` had a melting point of 274 to 277 °C.
Turning to `CCCCCCCCCCC(=O)CC`, the melting point was found to be 31 °C.
Turning to `O=C1CCN(C(=O)c2ccccc2)CC1`, the melting point was in the range of 56 to 59 °C.
Then `CC(C)(C)OC(=O)N[C@@H](Cc1c[nH]cn1)C(=O)O`, with 196 to 199 °C; and `CCOC(=O)CCC(N[P+]([O-])(OC)C(C)NC(=O)CCCCN1C(=O)c2ccccc2C1=O)C(=O)OCC` (stereo not drawn), with 81 °C; and `O=C(CC(C(=O)c1ccccc1)c1ccccc1)c1ccccc1` (stereo not drawn), with 128 °C.
In the case of `CCCCCCCCC=CCCCCCCCCOC(=O)OC1CCC2(C)C(=CCC3C2CCC2(C)C(C(C)CCCC(C)C)CCC32)C1` (stereo not drawn), the melting point worked out at 20 °C.
Regarding `Cc1ccc(CO)c(C)c1`, the melting point came to 22 °C.
On to `N#Cc1ncc(Cl)cc1Cl`, for which the melting point is 101 °C.
Take `C1CCNC1`: the melting point is -57.8 °C.
On to `CC12CCc3c(ccc4cc(O)ccc34)C1CCC2=O` (stereo not drawn), for which the melting point stood at 258 °C.
`O=C(C=Cc1ccc(-c2ccccc2)o1)c1ccco1`: the melting point fell in the range of 99 to 101 °C.
Compound `NS(=O)(=O)c1ccc(F)c2nonc12` displayed a melting point of 144 to 146 °C.
Turning to `CCOc1cccc(C=O)c1O`, the melting point came to 67 °C.
`CC(=O)Nc1ccc(-c2ccc(N(Nc3ccccc3)C(C)=O)cc2)cc1` registered a melting point of 233 °C.
For `Cc1c(C(N)=O)[nH]c2ccccc12`, the melting point was 170 to 172 °C.
For the compound `O=C(O)C(F)(F)C(F)(F)C(F)(F)C(F)(F)C(F)(F)C(F)(F)C(F)(F)C(F)(F)C(F)(F)C(F)(F)C(F)(F)F`, the melting point was 112 to 114 °C.
`O=C1NN=C(C(F)(F)F)C1=NNc1ccc(Cl)cc1` registered a melting point of 215 °C.
On to `CCC1c2ccccc2N(C)C12C=Cc1cccc([N+](=O)[O-])c1O2` (stereo not drawn), for which the melting point worked out at 148 °C.
With `CC1(C(=O)O)CCC(O)(CC(O)c2ccccc2)C1(C)C` (stereo not drawn) the figure was 188 °C.
`Cc1nc(-c2ccc3c(c2)CCO3)sc1C(=O)O` gave a melting point of 221 to 225 °C.
With `NC(=S)Nc1cccc(Cl)c1Cl`, the melting point lay in the range of 160 to 162 °C.
With `CC(C)Nc1ccccc1`, the melting point is -10 °C.
Take `CN1C2CCCC1CC(=O)C2`: the melting point lay within 63 to 65 °C.
In the case of `CC(C)C=C1NC(c2ccccc2)OC1=O` (stereo not drawn), the melting point stood at 87 °C.
Then `C=C(C)C(=O)OCCCCCCCCCCCC`, with -7 °C.
With `C1CCCCCCCC1`, the melting point is 11 °C.
With `c1ccc(C2=C(c3ccccc3)C(c3ccccc3)C(c3ccccc3)=C2c2ccccc2)cc1` the figure was 254 to 257 °C.
Then `COc1ccc(O)c(C(=O)O)c1`, with 143 °C.
`COc1cc2c(cc1OC)C(=O)C2` came in with a melting point of 141 °C.
Take `N=c1sc(C(=O)c2cccs2)nn1-c1c(Cl)cc(Cl)cc1Cl`: the melting point was found to be 209 °C.
Regarding `CCCCCCCCCCCCCCCCOC(C)=O`, the melting point was -18.5 °C.
Compound `CCCCCCCCC(Br)C(=O)O` (stereo not drawn) displayed a melting point of 4 °C.
Take `Cc1nn(C(=O)OC(C)(C)C)c(C)c1I`: the melting point lay within 56 to 58 °C.
In turn, `CC1(C)N=C(N)N=C(N)N1c1ccc(Cl)cc1` showed a melting point of 146 °C.
In turn, `Nc1ccc(CN2CCS(=O)(=O)CC2)cc1` had a melting point of 156 °C.
For `COc1c(C)c(C)c(OC)c(Br)c1C`, the melting point was 72 °C.
For the compound `CC(=O)N1CC(C)=CC1=O`, the melting point was in the range of 89 to 90 °C.
`C=CCCCCCCCCCCCCCCCCC1CC(=O)OC1=O` (stereo not drawn) registered a melting point of 67.2 °C.
Take `O=C(Cl)c1nnc(-c2ccccc2)o1`: the melting point lay within 80 to 90 °C.
As for `Cc1ccc(C(=O)c2noc(-c3ccc([N+](=O)[O-])cc3)c2S(=O)(=O)c2ccccc2)cc1`, the melting point came to 170 °C.
For the compound `CC(C)(O)CCl`, the melting point is -20 °C.
Consider `N#Cc1ccc(OCc2ccccc2)cc1`, for which the melting point was 97 °C.
The compound `COc1ccccc1C(O)=C1C(=O)CN(C(C)C)C1=O` yielded a melting point of 99 to 100 °C.
`CCc1[nH]c2ccccc2c1C` gave a melting point of 62 to 65 °C.
Consider `C=CCn1c2c(c3cc(OC)ccc31)CCc1cc(OC)ccc1-2`, for which the melting point lay within 92 to 93 °C.
On to `C/C(=N/NC(N)=O)C(=O)Nc1ccccc1`, for which the melting point was 236 to 238 °C.
For `Nc1c(F)cc(Br)cc1Br`, the melting point was determined as 63 °C.
For `O=C(O)c1ccc(N2CCOCC2)cc1`, the melting point lay in the range of 278 to 281 °C.
Turning to `Cc1ccc(C(N)=NO)cc1F`, the melting point was in the range of 105 to 107 °C.
With `CN1Cc2c(N)cccc2C(c2ccccc2)C1` (stereo not drawn) the figure was 179 °C; with `CCCCCCCCCCCCCC(C)CC` (stereo not drawn), -15 °C; with `CC(C)[C@H](NC(=O)OCc1ccccc1)C(=O)O`, 60 °C.
`Oc1ccc2ccncc2c1` gave a melting point of 227 °C.
For the compound `O=P(N1CC1)(N1CC1)N(N=Cc1ccc(Cl)cc1)c1ccccc1`, the melting point turned out to be 136 °C.
Take `CCC1CCCCN1C(=O)COC(=O)c1ccccc1` (stereo not drawn): the melting point worked out at 54.5 °C.
`O=C(O)c1c(F)ccc(F)c1O` had a melting point of 152 °C.
In turn, `O=CC(C=O)c1cnccn1` gave a melting point of 202 to 207 °C.
`CN1CCN(C2=C(Cl)C(=O)c3ccccc3C2=O)CC1` gave a melting point of 120 °C.
Consider `O=S(=O)(Cl)c1sccc1Br`, for which the melting point lay within 39 to 41.5 °C.
Compound `COc1ccccc1C=CC(=O)c1ccc(O)cc1O` registered a melting point of 177 °C.
On to `C=CCC(C(=O)NC(N)=O)C(C)C` (stereo not drawn), for which the melting point worked out at 194 °C.
Then `Cc1cccc2c(O)noc12`, with 155 to 157 °C.
`Cc1ccccc1C(=O)Cc1ccccc1C(=O)N(C)c1ccccc1`: the melting point came out at 119 °C.
For the compound `Brc1ccc(Sc2ccc(Br)cc2)cc1`, the melting point was 115 °C.
Regarding `COC(=O)c1ccccc1SCC(C)=O`, the melting point was 60 to 61 °C.
`c1ccc(C2=NCCN=C2c2ccccc2)cc1` had a melting point of 160 to 163 °C.
For `CSC(=CC(=C(C#N)C#N)c1ccc(Cl)cc1)SC`, the melting point fell in the range of 106 to 110 °C.
Then `COc1cc(CC2C(=O)NC(=N)N2C)ccc1O` (stereo not drawn), with 231 to 233 °C.
Turning to `CCOC(=O)Cc1nn(CC(N)=S)c(=O)c2ccccc12`, the melting point lay within 150 to 152 °C.
Take `Fc1ccc(Oc2ccnc3cc(Cl)cc(Cl)c23)cc1`: the melting point worked out at 107 °C.
With `O=C(CBr)c1cccs1` the figure was 109 to 111 °C; with `C#CC1(O)CCC2C3CC=C4C=C(C(C)(C)C(=O)O)CCC4(C)C3CCC21C` (stereo not drawn), 257 to 260 °C; with `Sc1cc(Cl)cc(Cl)c1`, 59 to 61 °C.
In turn, `CCOC(=O)CC(=O)c1cc(F)c(Cl)nc1Cl` gave a melting point of 68 to 72 °C.
Then `O=C(O)C(F)(F)C(F)(F)C(F)(F)C(F)(F)C(F)(F)F`, with 10 °C; and `C1CCC(P(CP(C2CCCCC2)C2CCCCC2)C2CCCCC2)CC1`, with 99 °C; and `N#CC(C#N)=C(C(=O)Cc1ccccc1)c1ccc([N+](=O)[O-])cc1`, with 332 to 334 °C.
`Cc1cc(C)c2c(c1C)CC2` came in with a melting point of 20 to 28 °C.
`Cc1[nH]c(=O)n(C(C)C)c(=O)c1Br` gave a melting point of 158 °C.
Then `O=C(C=Cc1ccccc1)c1ccccc1O`, with 90 °C; and `CC(C#N)CCC#N` (stereo not drawn), with -45 °C.
`CC(=O)Nc1cc(CCNC(=O)c2ccccc2)ccc1CCNC(=O)c1ccccc1` showed a melting point of 176 °C.
Consider `OCc1csc2ccccc12`, for which the melting point lay within 49 to 50 °C.
Compound `S=C=NCC(c1ccccc1)c1ccccc1` gave a melting point of 36 to 38 °C.
